# Measured values reported in patent publication US12391680B2, “Compounds and compositions for the treatment of cystic fibrosis” (FONDAZIONE ISTITUTO ITALIANO DI TECNOLOGIA, priority 2019, dated 2025).
# Target: mutant CFTR (Homo sapiens, UniProt P13569)
# Assay: Fluorescence assay for CFTR activity (halide-sensitive YFP, HS-YFP)
# Format: cell-based
# Details: CFBE41o- and FRT cells with stable expression of mutant CFTR
# Procedure: Mutant CFTR activity was determined with the functional assay based on the halide-sensitive yellow fluorescent protein, HS—YFP (Galietta et al., FEBS Lett 499:220-224, 2001). CFBE41o- and FRT cells with stable expression of mutant CFTR and HS—YFP were plated on clear-bottom 96-well black microplates (Code 3603, Corning Life Sciences) at a density of 50,000 cells/well and kept at 37° C. in 5% CO2 for 24 hours.
# For the corrector assay, cells were treated for further 24 hours with test compounds, vehicle (DMSO), or the positive control VX-809. After treatment, the culture medium was removed and cells in each well were stimulated for 30 min at 37° C. with 60 μL PBS (containing 137 mM NaCl, 2.7 mM KCl, 8.1 mM Na2HPO4, 1.5 mM KH2PO4, 1 mM CaCl2, and 0.5 mM MgCl2) plus forskolin (20 μM) and genistein (50 μM).
# For determination of potentiator activity on F508del-CFTR, cells were incubated for 24 hours at 27° C. to allow trafficking of the mutant protein to plasma membrane. Cells were then stimulated with for 30 min with PBS containing forskolin (20 μM) plus the compound to be tested at the desired concentration. For determination of potentiator activity on G551D-CFTR or G1349D-CFTR, cells were directly stimulated with forskolin plus test compound without previous incubation at low temperature. At the time of assay, microplates carrying CFBE41o- or FRT cells were transferred to microplate readers (BMG Labtech) equipped with high-quality excitation (HQ500/20×: 500±10 nm) and emission (HQ535/30M: 535±15 nm) filters for YFP (Chroma Technology). The assay consisted of a continuous 14 s fluorescence reading with 2 s before and 12 s after injection of an iodide-containing solution (165 μL of a modified PBS containing I^− instead of Cl^−; final I^− concentration in the well: 100 mM). Data were normalized to the initial background-subtracted fluorescence. Enhanced CFTR activity, induced by correctors and/or potentiators, results in accelerated I^− influx that in turn causes faster HS—YFP quenching (Pedemonte et al., Mol Pharmacol 68:1736-1746, 2005; Pedemonte et al., J Clin Invest 115:2564-2571, […]). To determine fluorescence quenching rate associated with I^− influx, the final 10 s of data for each well were fitted with an exponential function to extrapolate initial slope (dF/dt).
# EC50 obtained are illustrated in Table 1 wherein+: EC50>2 μM; ++: 1.0 μM <EC50<2 μM; +++: EC50<1 μM.
# mutant CFTR, sequence (P13569 with tags, fused parts or gaps DEL508-508): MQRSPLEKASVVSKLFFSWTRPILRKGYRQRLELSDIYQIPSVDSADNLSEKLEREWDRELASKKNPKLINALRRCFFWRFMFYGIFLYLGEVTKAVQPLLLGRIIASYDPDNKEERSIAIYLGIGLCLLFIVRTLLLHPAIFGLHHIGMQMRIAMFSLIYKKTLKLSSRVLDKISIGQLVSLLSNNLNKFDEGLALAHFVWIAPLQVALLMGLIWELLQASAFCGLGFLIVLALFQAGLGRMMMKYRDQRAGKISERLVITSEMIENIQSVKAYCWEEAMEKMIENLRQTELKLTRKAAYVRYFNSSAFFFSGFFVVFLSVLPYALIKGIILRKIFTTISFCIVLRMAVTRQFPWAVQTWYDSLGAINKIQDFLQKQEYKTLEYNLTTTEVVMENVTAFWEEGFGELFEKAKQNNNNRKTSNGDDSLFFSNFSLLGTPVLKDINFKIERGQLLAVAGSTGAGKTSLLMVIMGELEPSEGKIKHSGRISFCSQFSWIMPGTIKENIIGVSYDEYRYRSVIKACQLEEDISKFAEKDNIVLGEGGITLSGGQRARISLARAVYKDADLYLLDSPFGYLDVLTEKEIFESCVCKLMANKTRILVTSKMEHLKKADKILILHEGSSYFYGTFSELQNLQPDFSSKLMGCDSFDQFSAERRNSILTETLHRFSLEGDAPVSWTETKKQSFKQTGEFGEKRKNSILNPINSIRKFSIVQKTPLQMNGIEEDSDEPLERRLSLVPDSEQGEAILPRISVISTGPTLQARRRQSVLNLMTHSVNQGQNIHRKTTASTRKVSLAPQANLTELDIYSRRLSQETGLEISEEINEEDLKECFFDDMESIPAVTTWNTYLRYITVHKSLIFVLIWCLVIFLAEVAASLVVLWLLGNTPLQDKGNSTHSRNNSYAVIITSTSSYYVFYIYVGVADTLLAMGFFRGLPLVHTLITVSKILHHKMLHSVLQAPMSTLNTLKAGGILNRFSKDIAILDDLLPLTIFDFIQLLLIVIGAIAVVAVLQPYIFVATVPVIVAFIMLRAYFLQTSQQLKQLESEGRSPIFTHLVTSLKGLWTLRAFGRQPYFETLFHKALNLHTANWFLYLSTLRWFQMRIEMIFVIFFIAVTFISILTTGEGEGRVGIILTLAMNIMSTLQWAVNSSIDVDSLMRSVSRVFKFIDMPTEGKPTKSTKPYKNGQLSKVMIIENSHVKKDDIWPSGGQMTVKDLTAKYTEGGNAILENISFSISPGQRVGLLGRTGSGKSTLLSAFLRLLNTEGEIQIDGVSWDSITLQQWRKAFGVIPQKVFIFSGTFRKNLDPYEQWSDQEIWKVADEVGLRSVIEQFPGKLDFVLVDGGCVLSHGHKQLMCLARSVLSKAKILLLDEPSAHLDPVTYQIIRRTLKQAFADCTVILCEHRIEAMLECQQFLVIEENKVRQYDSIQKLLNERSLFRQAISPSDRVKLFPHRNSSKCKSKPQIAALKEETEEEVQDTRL
row,SMILES,EC50
1,"Cc1nc(S(=O)(=O)N2CCOC(c3c(C(N)=O)sc4ccccc34)C2)cn1C (racemic) [compound 002, rac-3-[4-(1,2-dimethylimidazol-4-yl)sulfonylmorpholin-2-yl]benzothiophene-2-carboxamide]",> 2000 nM
2,"NC(=O)c1sc2ccccc2c1C1CN(S(=O)(=O)c2ccccc2)CCO1 (racemic) [compound 003, rac-3-[4-(benzenesulfonyl)morpholin-2-yl]benzothiophene-2-carboxamide]",> 2000 nM
3,"NC(=O)c1sc2ccccc2c1C1CN(S(=O)(=O)c2c[nH]cn2)CCO1 (racemic) [compound 004, rac-3-[4-(1H-imidazol-4-ylsulfonyl)morpholin-2-yl]benzothiophene-2-carboxamide]",> 2000 nM
4,"NC(=O)c1sc2ccccc2c1C1CN(S(=O)(=O)c2ccsc2)CCO1 (racemic) [compound 005, rac-3-[4-(3-thienylsulfonyl)morpholin-2-yl]benzothiophene-2-carboxamide]",> 2000 nM
5,"NC(=O)c1sc2ccccc2c1C1CN(S(=O)(=O)c2ccc(Oc3ccccc3)cc2)CCO1 (racemic) [compound 006, rac-3-[4-(4-phenoxyphenyl)sulfonylmorpholin-2-yl]benzothiophene-2-carboxamide]",< 1000 nM
6,"COC(=O)c1cccc(S(=O)(=O)N2CCOC(c3c(C(N)=O)sc4ccccc34)C2)c1 (racemic) [compound 007, rac-methyl 3-[2-(2-carbamoylbenzothiophen-3-yl)morpholin-4-yl]sulfonylbenzoate]",> 2000 nM
7,"Cc1noc(C)c1S(=O)(=O)N1CCOC(c2c(C(N)=O)sc3ccccc23)C1 (racemic) [compound 008, rac-3-[4-(3,5-dimethylisoxazol-4-yl)sulfonylmorpholin-2-yl]benzothiophene-2-carboxamide]",> 2000 nM
8,"NC(=O)c1sc2ccccc2c1C1CN(S(=O)(=O)c2cccc(Br)c2)CCO1 (racemic) [compound 009, rac-3-[4-(3-bromophenyl)sulfonylmorpholin-2-yl]benzothiophene-2-carboxamide]",> 2000 nM
9,"COc1ccc(S(=O)(=O)N2CCOC(c3c(C(N)=O)sc4ccccc34)C2)cc1 (racemic) [compound 010, rac-3-[4-(4-methoxyphenyl)sulfonylmorpholin-2-yl]benzothiophene-2-carboxamide]",1000 to 2000 nM
10,"Cc1cccc(S(=O)(=O)N2CCOC(c3c(C(N)=O)sc4ccccc34)C2)c1 (racemic) [compound 012, rac-3-[4-(m-tolylsulfonyl)morpholin-2-yl]benzothiophene-2-carboxamide]",1000 to 2000 nM
11,"NC(=O)c1sc2ccccc2c1C1CN(S(=O)(=O)c2ccc(N3CCCC3=O)cc2)CCO1 (racemic) [compound 015, rac-3-[4-[4-(2-oxopyrrolidin-1-yl)phenyl]sulfonylmorpholin-2-yl]benzothiophene-2-carboxamide]",> 2000 nM
12,"NC(=O)c1sc2ccccc2c1C1CN(S(=O)(=O)C2CCCCC2)CCO1 (racemic) [compound 016, rac-3-[4-cyclohexylsulfonylmorpholin-2-yl]benzothiophene-2-carboxamide]",> 2000 nM
13,"NC(=O)c1sc2ccccc2c1C1CN(S(=O)(=O)c2ccc3c(c2)OCO3)CCO1 (racemic) [compound 017, rac-3-[4-(1,3-benzodioxol-5-ylsulfonyl)morpholin-2-yl]benzothiophene-2-carboxamide]",1000 to 2000 nM
14,"COc1ccc(Oc2ccc(S(=O)(=O)N3CCOC(c4c(C(N)=O)sc5ccccc45)C3)cc2)cc1 (racemic) [compound 019, rac-3-[4-[4-(4-methoxyphenoxy)phenyl]sulfonylmorpholin-2-yl]benzothiophene-2-carboxamide]",> 2000 nM
15,"NC(=O)c1sc2ccccc2c1C1CN(S(=O)(=O)c2cccc(F)c2)CCO1 (racemic) [compound 020, rac-3-[4-(3-fluorophenyl)sulfonylmorpholin-2-yl]benzothiophene-2-carboxamide]",1000 to 2000 nM
16,"NC(=O)c1sc2ccccc2c1C1CN(S(=O)(=O)c2ccc(F)c(F)c2)CCO1 (racemic) [compound 021, rac-3-[4-(3,4-difluorophenyl)sulfonylmorpholin-2-yl]benzothiophene-2-carboxamide]",> 2000 nM

row,SMILES,EC50
1,"NC(=O)c1sc2ccccc2c1C1CN(S(=O)(=O)c2ccc(F)cc2)CCO1 (racemic) [compound 022, rac-3-[4-(4-fluorophenyl)sulfonylmorpholin-2-yl]benzothiophene-2-carboxamide]",> 2000 nM
2,"COc1ccc(S(=O)(=O)N2CCOC(c3c(C(N)=O)sc4ccccc34)C2)cc1C (racemic) [compound 023, rac-3-[4-(4-methoxy-3-methyl-phenyl)sulfonylmorpholin-2-yl]benzothiophene-2-carboxamide]",> 2000 nM
3,"NC(=O)c1sc2ccccc2c1C1CN(S(=O)(=O)c2ccc(Oc3ccncc3)cc2)CCO1 (racemic) [compound 024, rac-3-[4-[4-(4-pyridyloxy)phenyl]sulfonylmorpholin-2-yl]benzothiophene-2-carboxamide]",> 2000 nM
4,"Cc1cc(S(=O)(=O)N2CCOC(c3c(C(=O)N(C)C)sc4ccccc34)C2)ccc1F (racemic) [compound 025, rac-3-[4-(4-fluoro-3-methyl-phenyl)sulfonylmorpholin-2-yl]-N,N-dimethyl-benzothiophene-2-carboxamide]",> 2000 nM
5,"Cc1ccc(S(=O)(=O)N2CCOC(c3c(C(N)=O)sc4ccccc34)C2)cc1F (racemic) [compound 026, rac-3-[4-(3-fluoro-4-methyl-phenyl)sulfonylmorpholin-2-yl]benzothiophene-2-carboxamide]",< 1000 nM
6,"Cc1ccc(F)cc1S(=O)(=O)N1CCOC(c2c(C(N)=O)sc3ccccc23)C1 (racemic) [compound 027, rac-3-[4-(5-fluoro-2-methyl-phenyl)sulfonylmorpholin-2-yl]benzothiophene-2-carboxamide]",> 2000 nM
7,"CNC(=O)c1sc2ccccc2c1C1CN(S(=O)(=O)c2ccc(F)c(C)c2)CCO1 (racemic) [compound 028, rac-3-[4-(4-fluoro-3-methyl-phenyl)sulfonylmorpholin-2-yl]-N-methyl-benzothiophene-2-carboxamide]",> 2000 nM
8,"Cc1cc(S(=O)(=O)N2CCOC(c3c(C(=O)NCCO)sc4ccccc34)C2)ccc1F (racemic) [compound 029, rac-3-[4-(4-fluoro-3-methyl-phenyl)sulfonylmorpholin-2-yl]-N-(2-hydroxyethyl)benzothiophene-2-carboxamide]",> 2000 nM
9,"CCNC(=O)c1sc2ccccc2c1C1CN(S(=O)(=O)c2ccc(F)c(C)c2)CCO1 (racemic) [compound 030, rac-N-ethyl-3-[4-(4-fluoro-3-methyl-phenyl)sulfonylmorpholin-2-yl]benzothiophene-2-carboxamide]",> 2000 nM
10,"Cc1cc(S(=O)(=O)N2CCOC(c3c(C(=O)NC(C)C)sc4ccccc34)C2)ccc1F (racemic) [compound 031, rac-3-[4-(4-fluoro-3-methyl-phenyl)sulfonylmorpholin-2-yl]-N-isopropyl-benzothiophene-2-carboxamide]",> 2000 nM
11,"Cc1cc(C)c(S(=O)(=O)N2CCOC(c3c(C(N)=O)sc4ccccc34)C2)c(C)c1 (racemic) [compound 032, rac-3-[4-(2,4,6-trimethylphenyl)sulfonylmorpholin-2-yl]benzothiophene-2-carboxamide]",> 2000 nM
12,"Cc1ccc(S(=O)(=O)N2CCOC(c3c(C(N)=O)sc4ccccc34)C2)cc1 (racemic) [compound 033, rac-3-[4-(p-tolylsulfonyl)morpholin-2-yl]benzothiophene-2-carboxamide]",< 1000 nM
13,"NC(=O)c1sc2ccccc2c1C1CN(S(=O)(=O)c2cccc(C(F)(F)F)c2)CCO1 (racemic) [compound 035, rac-3-[4-[3-(trifluoromethyl)phenyl]sulfonylmorpholin-2-yl]benzothiophene-2-carboxamide]",< 1000 nM
14,"CC(C)(C)c1ccc(S(=O)(=O)N2CCOC(c3c(C(N)=O)sc4ccccc34)C2)cc1 (racemic) [compound 036, rac-3-[4-(4-tert-butylphenyl)sulfonylmorpholin-2-yl]benzothiophene-2-carboxamide]",< 1000 nM
15,"N#Cc1ccc(S(=O)(=O)N2CCOC(c3c(C(N)=O)sc4ccccc34)C2)cc1 (racemic) [compound 037, rac-3-[4-(4-cyanophenyl)sulfonylmorpholin-2-yl]benzothiophene-2-carboxamide]",> 2000 nM
